Assay results as given in patent US20040229791A1, “Compositions and methods of modulating TGF-beta activity by fatty acids” (priority 2002, published 2004).

Molecular target: T1, TGF-β1-α2M* complex (Homo sapiens, UniProt P01023)
T1 construct: was purified from pooled citrate-treate human plasma; from tissue; host or cells: pooled citrate-treated human plasma
T1 sequence (P01023 24-1474): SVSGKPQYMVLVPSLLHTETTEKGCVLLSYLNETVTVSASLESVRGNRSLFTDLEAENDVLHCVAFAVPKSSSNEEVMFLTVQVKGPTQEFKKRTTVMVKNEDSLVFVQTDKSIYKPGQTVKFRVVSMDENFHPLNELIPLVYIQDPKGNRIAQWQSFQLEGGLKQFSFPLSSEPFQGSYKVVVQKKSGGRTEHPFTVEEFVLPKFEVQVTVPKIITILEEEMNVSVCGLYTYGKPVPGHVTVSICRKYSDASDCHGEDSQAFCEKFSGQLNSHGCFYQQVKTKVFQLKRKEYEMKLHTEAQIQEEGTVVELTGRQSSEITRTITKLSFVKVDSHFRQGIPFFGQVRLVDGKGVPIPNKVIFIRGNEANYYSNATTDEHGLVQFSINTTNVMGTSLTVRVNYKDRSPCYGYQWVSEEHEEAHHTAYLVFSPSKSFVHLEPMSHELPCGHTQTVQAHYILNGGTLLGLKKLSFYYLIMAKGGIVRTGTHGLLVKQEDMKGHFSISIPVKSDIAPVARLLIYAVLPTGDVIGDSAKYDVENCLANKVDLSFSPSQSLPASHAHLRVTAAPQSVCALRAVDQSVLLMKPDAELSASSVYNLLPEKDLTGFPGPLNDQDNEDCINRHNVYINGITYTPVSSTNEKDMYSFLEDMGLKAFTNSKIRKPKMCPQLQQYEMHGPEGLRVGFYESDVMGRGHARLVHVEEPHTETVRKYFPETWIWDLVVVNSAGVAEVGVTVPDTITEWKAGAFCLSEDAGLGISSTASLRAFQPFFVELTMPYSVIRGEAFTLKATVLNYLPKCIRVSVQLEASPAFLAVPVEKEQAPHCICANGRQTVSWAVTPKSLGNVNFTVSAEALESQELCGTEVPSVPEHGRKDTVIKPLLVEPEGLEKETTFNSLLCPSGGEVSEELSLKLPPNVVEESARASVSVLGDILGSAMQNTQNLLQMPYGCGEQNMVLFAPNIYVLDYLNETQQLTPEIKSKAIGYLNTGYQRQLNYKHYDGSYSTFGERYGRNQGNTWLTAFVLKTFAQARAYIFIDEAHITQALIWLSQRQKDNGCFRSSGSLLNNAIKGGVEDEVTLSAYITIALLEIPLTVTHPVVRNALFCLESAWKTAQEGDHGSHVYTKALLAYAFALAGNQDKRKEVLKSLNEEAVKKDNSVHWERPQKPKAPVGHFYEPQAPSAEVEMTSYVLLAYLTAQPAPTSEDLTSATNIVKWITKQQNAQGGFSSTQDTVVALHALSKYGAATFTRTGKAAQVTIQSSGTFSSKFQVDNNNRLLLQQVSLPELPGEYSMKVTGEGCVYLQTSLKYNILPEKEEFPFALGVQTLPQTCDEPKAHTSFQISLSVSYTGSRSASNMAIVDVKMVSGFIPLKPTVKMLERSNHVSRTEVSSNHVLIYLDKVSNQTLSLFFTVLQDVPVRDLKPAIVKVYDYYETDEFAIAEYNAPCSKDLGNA
Test: Inhibition of 125I-TGF-β1 and α2M* complex formation (5% non-denaturing PAGE, autoradiography)
Format: binding
Description: Saturated and unsaturated fatty acids are present in plasma and tissues (25,26). The effects of various concentrations of saturated fatty acids on the formation of complexes between ^125I-TGF ? β1 and ? 2M* were examined. ^125I-TGF- ? 1 (1 nM) was incubated μg/ml) in the presence of various concentrations of n-caprylic acid ([…]), lauric acid (12 carbon atoms), myristic acid (14 carbon atoms), palmitic acid (16 carbon atoms) and stearic acid (18 carbon atoms). After 30 min at room temperature, the reaction mixture was analyzed by 5% non-denaturing PAGE and autoradiography, a standard method form determining complex formation between TGF-β and α2M* (12). […] At 100 μM, it inhibited 20% of the complex formation between TGF ? β1 and α2M*. Esterification consistently abolished the inhibitory activities of the fatty acids.
Complex formation of ^125I-TGF-β and ? 2M*—The reaction mixture contained 10 μg of . α2M*, ˜1 nM of ^125I-TGF- ? 1, ^125I-TGF ? β2 or ^125I-TGF ? acids (dissolved in 100% ethanol) in 0.05 ml of 50 mM HEPES-NaOH buffer, pH 7.4. The final concentration of ethanol in the reaction mixture was 0.5%. These fatty acids and fatty acid derivatives were soluble under the experimental conditions. After 30 min at room temperature, the complex formation of ^125I-TGF- ? and. α2M* was determined by 5% non-denaturing polyacrylamide gel electrophoresis (PAGE) or by 7.5% SDS-PAGE following cross-linking by 0.6 mM DSS. After electrophoresis, the gel was stained with Coomassie blue and analyzed by autoradiography. The ^125I-TGF- ? - ? 2M* complex which co-migrated with free ? 2M* was quantified using a PhosphoImager (Fuji).

inhibitory activity on complex formation of 125I-TGF-β1 and α2M*: relatively weak inhibitor | inhibition of the complex formation between TGF-β1 and α2M* (at 100 μM): 20%
Structure (SMILES): CCCCCCCC(=O)O [n-caprylic acid]
